The IC50 is the concentration that inhibits the measured activity by half. One may read the Tmax as the time at which the peak concentration occurs. Usually AUC(0-inf) stands for total exposure, with the tail of the curve extrapolated. Read a low AUC(0-inf) as less exposure. The AUC(0-t) is exposure summed from dosing to a finite time, without extrapolation to infinity. Low readings indicate low exposure, high ones high exposure. As usually defined, the Cmax is the highest concentration seen after dosing. Broadly, the half-life is how long it takes for the measured level to halve. For orientation: MRT means a mean duration of stay, worked out from the concentration-time curve. By inhibition is commonly meant how much of the control response was suppressed.

Structures are written as SMILES.

We go through one molecule from ChEMBL document CHEMBL3856276, “Design, Synthesis, and Biological Evaluation of Novel Tetrahydroprotoberberine Derivatives (THPBs) as Selective α1A-Adrenoceptor Antagonists” (J Med Chem, 2016).

For series [1], the target named is T1, Alpha-1A adrenergic receptor (Rattus norvegicus, UniProt P43140).
T1 sequence (P43140 whole entry): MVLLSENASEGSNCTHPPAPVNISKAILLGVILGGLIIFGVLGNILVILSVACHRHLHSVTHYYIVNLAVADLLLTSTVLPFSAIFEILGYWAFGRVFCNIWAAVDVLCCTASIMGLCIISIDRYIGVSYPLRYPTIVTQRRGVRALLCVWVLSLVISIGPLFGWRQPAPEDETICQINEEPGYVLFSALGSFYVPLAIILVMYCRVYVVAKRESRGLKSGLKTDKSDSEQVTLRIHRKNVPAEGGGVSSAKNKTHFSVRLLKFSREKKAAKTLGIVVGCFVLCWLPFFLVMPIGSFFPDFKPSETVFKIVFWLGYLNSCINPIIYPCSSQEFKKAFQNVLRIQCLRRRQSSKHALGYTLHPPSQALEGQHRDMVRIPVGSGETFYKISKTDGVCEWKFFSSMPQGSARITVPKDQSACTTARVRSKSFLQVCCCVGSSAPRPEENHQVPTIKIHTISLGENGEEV
As to the kind of experiment: Antagonist activity at alpha1A adrenoceptor in Sprague-Dawley rat urethra assessed as inhibition of norepinephrine-induced smooth muscle contraction after 20 mins.

Series [2] can be described thus: Tmax in rat at 20 mg/kg, ig via oral gavage. Type of series: ADME, organism-based. The settings on record: in vivo.
The target of series [3] is T2, Alpha-1B adrenergic receptor (Rattus norvegicus, UniProt P15823).
T2 sequence (P15823 whole entry): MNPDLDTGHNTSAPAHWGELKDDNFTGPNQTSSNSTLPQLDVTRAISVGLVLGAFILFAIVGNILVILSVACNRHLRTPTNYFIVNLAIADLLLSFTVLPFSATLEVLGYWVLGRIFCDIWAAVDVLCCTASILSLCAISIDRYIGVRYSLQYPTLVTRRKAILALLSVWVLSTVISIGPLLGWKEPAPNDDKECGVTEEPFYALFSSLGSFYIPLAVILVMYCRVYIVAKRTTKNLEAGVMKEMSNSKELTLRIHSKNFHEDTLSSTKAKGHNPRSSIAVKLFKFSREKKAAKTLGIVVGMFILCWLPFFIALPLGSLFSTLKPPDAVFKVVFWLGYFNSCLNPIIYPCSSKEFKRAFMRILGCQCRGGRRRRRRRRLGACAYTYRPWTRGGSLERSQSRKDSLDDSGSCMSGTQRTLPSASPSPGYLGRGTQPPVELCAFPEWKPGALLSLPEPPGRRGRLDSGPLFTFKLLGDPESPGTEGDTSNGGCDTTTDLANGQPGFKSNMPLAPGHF
Nature of the series: Antagonist activity at alpha1B adrenoceptor in Sprague-Dawley rat aorta assessed as inhibition of norepinephrine-induced smooth muscle contraction after 20 mins.

A short description of series [4]: AUC (0 to infinity) in rat at 10 mg/kg, iv. Type of series: ADME, organism-based. More on the design: dose 10 mg/kg, time infinity, route intravenous. To be noted: in vivo.
Another series is filed under the species Homo sapiens. As to the kind of experiment: Selectivity ratio of IC50 for human full-length N-terminal SNAP-tagged alpha1D adrenoceptor to IC50 for human full-length N-terminal SNAP-tagged alpha1A adrenoceptor.
The subject of series [5] is Rattus norvegicus. Nature of the series: Inhibition of micturition frequency in po dosed Sprague-Dawley rat benign prostatic hyperplasia model administered 20 mins followed by distilled watering loading measured for 2 hrs. In kind it is functional. To be noted: read-out: MED.
Series [6] can be described thus: AUC (0 to infinity) in rat at 20 mg/kg, ig via oral gavage. In kind it is ADME, organism-based. To be noted: in vivo.
In series [7] the target is T3, Alpha-1A adrenergic receptor (Homo sapiens, UniProt P35348).
T3 sequence (P35348 whole entry): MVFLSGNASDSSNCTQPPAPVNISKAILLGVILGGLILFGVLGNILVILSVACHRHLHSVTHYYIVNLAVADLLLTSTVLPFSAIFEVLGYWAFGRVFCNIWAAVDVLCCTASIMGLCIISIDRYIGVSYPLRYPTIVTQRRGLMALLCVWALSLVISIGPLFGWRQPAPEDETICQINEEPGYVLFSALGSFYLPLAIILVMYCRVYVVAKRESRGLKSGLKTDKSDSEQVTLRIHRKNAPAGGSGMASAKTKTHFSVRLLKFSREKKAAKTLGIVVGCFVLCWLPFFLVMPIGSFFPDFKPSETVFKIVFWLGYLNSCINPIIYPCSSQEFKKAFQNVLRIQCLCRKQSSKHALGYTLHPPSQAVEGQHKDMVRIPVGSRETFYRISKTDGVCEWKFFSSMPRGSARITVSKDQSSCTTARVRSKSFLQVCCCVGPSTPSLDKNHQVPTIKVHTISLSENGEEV
Description: Antagonist activity at human full-length N-terminal SNAP-tagged alpha1A adrenoceptor expressed in HEK293 cells assessed as inhibition of agonist-induced calcium mobilization preincubated for 10 mins followed by agonist addition by fluo-4 AM dye-based assay

In series [8] the target is T4, Alpha-1B adrenergic receptor (Homo sapiens, UniProt P35368).
T4 sequence (P35368 whole entry): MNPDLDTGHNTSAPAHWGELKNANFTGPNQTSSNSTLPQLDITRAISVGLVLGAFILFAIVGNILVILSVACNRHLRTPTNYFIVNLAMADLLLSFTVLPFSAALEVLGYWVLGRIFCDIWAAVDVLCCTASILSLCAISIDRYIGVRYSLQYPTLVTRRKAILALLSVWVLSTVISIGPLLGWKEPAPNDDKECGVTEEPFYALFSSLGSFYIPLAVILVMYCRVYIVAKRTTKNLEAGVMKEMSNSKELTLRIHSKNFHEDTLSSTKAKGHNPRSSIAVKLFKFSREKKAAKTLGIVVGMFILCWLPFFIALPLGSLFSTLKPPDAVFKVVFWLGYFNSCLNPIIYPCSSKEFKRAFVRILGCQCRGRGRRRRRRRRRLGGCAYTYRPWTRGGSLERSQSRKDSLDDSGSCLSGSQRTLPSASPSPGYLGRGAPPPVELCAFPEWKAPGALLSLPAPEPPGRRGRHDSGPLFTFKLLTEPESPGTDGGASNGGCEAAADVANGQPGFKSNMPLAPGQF
Description: Antagonist activity at human full-length N-terminal SNAP-tagged alpha1B adrenoceptor expressed in HEK293 cells assessed as inhibition of agonist-induced calcium mobilization preincubated for 10 mins followed by agonist addition by fluo-4 AM dye-based assay

The nature of series [9]: AUC (0 to t) in rat at 10 mg/kg, iv. Type of series: ADME, organism-based. The settings on record: in vivo.
Series [10] is described as follows: Cmax in rat at 10 mg/kg, iv. In kind it is ADME, organism-based. More on the design: dose 10 mg/kg, route intravenous. The settings on record: in vivo.
Series [11] concerns Mus musculus. As to the kind of experiment: Acute toxicity in Kunming mouse assessed as effect on body weight at 500 mg/kg, po administered as single dose measured over 7 days. The settings on record: in vivo, 168 h. Type of series: organism-based.
The nature of series [12]: Cmax in rat at 20 mg/kg, ig via oral gavage. In kind it is ADME, organism-based. The settings on record: in vivo.
The test system of series [13] is Rattus norvegicus. Nature of the series: Increase in voided volume in po dosed Sprague-Dawley rat benign prostatic hyperplasia model administered 20 mins followed by distilled watering loading measured for 2 hrs. In kind it is functional. To be noted: read-out: MED.
Series [14] is described as follows: Half life in rat at 10 mg/kg, iv. In kind it is ADME, organism-based. To be noted: in vivo.
Series [15] is described as follows: AUC (0 to t) in rat at 20 mg/kg, ig via oral gavage. To be noted: in vivo. In kind it is ADME, organism-based.
For series [16], the system named is Mus musculus. Nature of the series: Acute toxicity in Kunming mouse assessed as mortality at 500 mg/kg, po administered as single dose measured over 7 days. In kind it is organism-based. The settings on record: in vivo, 168 h.
Series [17] in a line: Mean residence time in rat at 20 mg/kg, ig via oral gavage. Type of series: ADME, organism-based. The settings on record: in vivo.
Series [18] can be described thus: Mean residence time in rat at 10 mg/kg, iv. Type of series: ADME, organism-based. The settings on record: in vivo.
In series [19] the target is T5, Alpha-1A adrenergic receptor (Homo sapiens) (UniProt P35348).
T5 sequence (whole entry): T3 sequence (P35348 whole entry)
Nature of the series: Antagonist activity at human full-length N-terminal SNAP-tagged alpha1A adrenoceptor expressed in HEK293 cells assessed as inhibition of agonist-induced calcium mobilization at 10 uM preincubated for 10 mins followed by agonist addition by fluo-4 AM dye-based assay relative to control. In kind it is functional, cell-based.

As for `COc1ccc2[nH]c3c(c2c1)C[C@H]1c2cc4c(cc2CCN1C3)OCO4`, the IC50 was 0.5 nM in series [1], above 1000 nM in series [3], 12.8 nM in series [7] and above 10 µM in series [8]. The Tmax in series [2] worked out at 1 h. Moreover, the total exposure AUC(0-inf) in series [4] is 1880 ng·h/mL; in series [6] it was 2280 ng·h/mL. Besides, the Ratio IC50 in the series listed under Homo sapiens was found to be 19.6. Moreover, the minimal effective dose in the series with Rattus norvegicus [5] and in the series on Rattus norvegicus [13] was 3 mg/kg each time. The AUC(0-t) in [9] was 1870 ng·h/mL; in series [15] it was 2270 ng·h/mL. Also, the Cmax in series [10] is 855 ng/mL; in series [12] it was 684 ng/mL. For the same molecule, the Activity result in the series with Mus musculus [11] and in the series with Mus musculus [16] was “Non-Toxic” each time. In addition, in [14], the half-life was 58.8 min. Moreover, the MRT in series [17] stood at 2.52 h; in series [18] it was 1.79 h. The inhibition in [19] stood at 100%.
